According to patent US20250288587A1, “Methods of Treating Fibrosis” (Athira Pharma, Inc., priority 2022, published 2025):

Tests used:
[1] = test system: pulmonary LPS-stimulated rats; test: Cytokine expression in BALF supernatant (multiplex immunoassay), LPS-induced acute pulmonary inflammation; format: in vivo; conditions: for cytokines with significant changes in expression in BALF supernatant versus LPS-only animals: p<0.05, Student's T-test, any tested dose
[2] = test system: pulmonary LPS-stimulated rats; test: Immune cell infiltration in BALF, LPS-induced acute pulmonary inflammation; format: in vivo; set-up: key to Total Leukocytes in BALF, reduction in cell count vs disease control / Neutrophils in BALF, reduction in cell count vs disease control: + = >5-25% improvement vs disease control; ++ = >26-50% improvement vs disease control; +++ = >51-100% improvement v disease control; NS means not significant; conditions: 24 h and 0.5 h before LPS; for Neutrophils in BALF, reduction in cell count vs disease control / Total Leukocytes in BALF, reduction in cell count vs disease control: BALF 4 h post LPS; for total leukocyte counts and neutrophil counts in BALF compared to LPS-only controls: IV
Source text: Acute pulmonary inflammation can be effectively modeled in rats by intratracheal administration of bacterial lipopolysaccharides (LPS). Pulmonary inflammation that is left unresolved can lead to pulmonary fibrosis. The normal process of inflammation is regulated and promoted by expression, secretion, and distribution of inflammatory signaling proteins. Therapeutics intended to reduce inflammation are commonly identified by their ability to change the expression levels of inflammatory signaling molecules, either by disruption of the inflammatory pathway directly, or resolution of the inflammatory signaling cascade. The severity of inflammatory response can be measured by quantifying the amount of immune cell infiltration and secretion of cytokine signaling proteins in bronchoalveolar lavage fluid (BALF).
In this study, acute pulmonary inflammation was induced in healthy male Sprague-Dawley rats (7-9 weeks old at study start) by intratracheal instillation of […] LPS in saline. Test animals were treated with test compounds twice, at 24 hours and 0.5 hours before LPS treatment by intravenous (IV) injection. […] Four hours post LPS administration, animals were euthanized by intraperitoneal injection of thiopentone and 20 mL of cold Hanks Balanced Salt Solution, pH 7.2, was infused into the lungs through tracheal cannulation. BALF was then collected.
Immune cell infiltration was performed by counting total leukocytes using a MUSE® mini flow cytometer, and by manual counting of neutrophil cells in cytospin smears stained with Leishman's staining reagent.

[3] = test system: THP-1-differentiated macrophages; test: Pro-inflammatory cytokine expression in LPS-challenged THP-1-differentiated macrophages; format: cell-based, human; set-up: key to IL-6, significant reduction in culture supernatant vs LPS treatment / TNF-α, significant reduction in culture supernatant vs LPS treatment / IL-1β, significant reduction in culture supernatant vs LPS treatment: “NS” indicates a non-significant reduction in the indicated cytokine; “+” indicates a p value <0.05 in Tukey post test; “++” indicates a p value <0.01 in Tukey post test; conditions: for IL-1β, significant reduction in culture supernatant vs LPS treatment / IL-6, significant reduction in culture supernatant vs LPS treatment / TNF-α, significant reduction in culture supernatant vs LPS treatment: 20 min pre-treatment, 24 hrs LPS; for expression of IL-1β and TNF-α / expression of IL-6: at at least one tested dose
Experimental: Differentiation with PMA causes THP-1 monocyte cells to acquire functional and morphological resemblance to macrophages. LPS interacts with THP-1 differentiated macrophage through the toll-like receptor 4, triggering the inflammatory response and stimulating pro-inflammatory cytokine release and eventually leading to cellular death. Compounds were tested to determine their anti-inflammatory effects on LPS-challenged macrophage cultures. THP-1-differentiated macrophages were treated with test compounds for 20 minutes, followed by 24 hrs of LPS challenge. Culture supernatants were then collected to analyzed for the presence of pro-inflammatory cytokines: […], interleukin 6 (IL-6) and tumor necrosis factor α (TNF-α).
Cytokine quantification in cell culture supernatants was accomplished by HTRF kits to assess levels of IL-1β (Human IL-1β kit, #62HIL1BPEG, Cisbio) and IL-6 (Human IL-6 kit, 62HIL06PET, Cisbio), and by ELISA to determine the levels of TNF-α (Human TNF-α ELISA kit, KHC3011, ThermoFisher).
Data analysis was performed via 1-way ANOVA with Tukey post-test compared to LPS treatment cultures using Prism statistical software (GraphPad). Tabular data indicates significance of reduction in culture supernatants for the indicated analyte at the indicated doses.

MRC-5 cells = test: TGFβ-stimulated αSMA expression in MRC-5 cells (HTRF); format: cell-based; set-up: key to Significant reduction in αSMA via HTRF compared to TGFβ alone: NS = no statistically significant change in aSMA expression; + = p < 0.05; ++ = p < 0.01; +++ = p < 0.005; ++++ = p < 0.001; conditions: for αSMA expression: combined with 0.01 ng/ml HGF; for Significant reduction in αSMA via HTRF compared to TGFβ alone: TGFβ 1 ng/ml, HGF 0.01 ng/ml, 48 h
Experimental: In this study, pulmonary-derived immortalized fibroblasts, MRC-5 cells, were cultured as a model of the early transition to fibrosis, and αSMA expression was measured using an immunodetection system driven by homogenous time-resolved fluorescence (HTRF) technology. This detection system produces a fluorescent signal in the presence of αSMA in cell lysates. Cells were grown to confluence in 96-well culture plates in complete media, and then transitioned to serum-free media for 2 hours. Next TGFβ (final 1 ng/ml in serum-free media) was added to the cells to stimulate the fibrotic transition. After 2 hours, media containing either HGF or HGF combined with one of the compounds was added to the cells. After incubation for 48 hours, cells were lysed and processed for αSMA HTRF to detect the levels of αSMA expression and compared to TGFβ-stimulated cultures. Statistical analysis consisted of 1-way ANOVA with a Dunnett's multiple comparison's post-test.

[4] = 0.075 mg/kg IV, 24 h and 0.5 h before LPS
[5] = 0.75 mg/kg IV, 24 h and 0.5 h before LPS
[6] = 7.5 mg/kg IV, 24 h and 0.5 h before LPS

Row | Compound | IFN-γ, significant change in cytokine expression in BALF supernatant [1, 4] | IL-1β, significant change in cytokine expression in BALF supernatant [1, 5] | cytokines with significant changes in expression in BALF supernatant versus LPS-only animals [1] | Neutrophils in BALF, reduction in cell count vs disease control ([2]; 0.075 mg/kg IV) | Total Leukocytes in BALF, reduction in cell count vs disease control ([2]; 0.075 mg/kg IV) | Neutrophils in BALF, reduction in cell count vs disease control ([2]; 0.75 mg/kg IV) | Total Leukocytes in BALF, reduction in cell count vs disease control ([2]; 0.75 mg/kg IV) | total leukocyte counts and neutrophil counts in BALF compared to LPS-only controls [2] | IL-1β, significant reduction in culture supernatant vs LPS treatment ([3]; 0.1 nM) | IL-6, significant reduction in culture supernatant vs LPS treatment ([3]; 0.1 nM) | TNF-α, significant reduction in culture supernatant vs LPS treatment ([3]; 0.1 nM) | IL-1β, significant reduction in culture supernatant vs LPS treatment ([3]; 10 nM) | IL-6, significant reduction in culture supernatant vs LPS treatment ([3]; 10 nM) | TNF-α, significant reduction in culture supernatant vs LPS treatment ([3]; 10 nM) | IL-1β, significant reduction in culture supernatant vs LPS treatment ([3]; 1000 nM) | IL-6, significant reduction in culture supernatant vs LPS treatment ([3]; 1000 nM) | TNF-α, significant reduction in culture supernatant vs LPS treatment ([3]; 1000 nM) | expression of IL-1β and TNF-α [3] | expression of IL-6 [3] | αSMA expression (MRC-5 cells; 1 uM) | further results
1 | CCC(C)CN1CC2N(C(=O)c3ccc(C(F)(F)F)cc3)CCC(=O)N2[C@@H](C)C1=O (some centres unmarked) [Compound 1a] | + (+ = Significant change in cytokine quantification, p < 0.05 by Student's T-test) | + (+ = Significant change in cytokine quantification, p < 0.05 by Student's T-test) | G-CSF, CXCL2, CXCL10, IFN-γ, and IL-1β | + (+ = >5% reduction in cell count vs disease control) | + (+ = >5% reduction in cell count vs disease control) | NS | NS | reduced both total leukocyte counts and neutrophil counts | ++ (“++” indicates a p value <0.01 in Tukey post test) | NS | ++ (“++” indicates a p value <0.01 in Tukey post test) | ++ (“++” indicates a p value <0.01 in Tukey post test) | ++ (“++” indicates a p value <0.01 in Tukey post test) | ++ (“++” indicates a p value <0.01 in Tukey post test) | ++ (“++” indicates a p value <0.01 in Tukey post test) | + (“+” indicates a p value <0.05 in Tukey post test) | ++ (“++” indicates a p value <0.01 in Tukey post test) | significantly reduced | significantly reduced | significantly reduced αSMA | CXCL10, significant change in cytokine expression in BALF supernatant [1, 4]: + (+ = Significant change in cytokine quantification, p < 0.05 by Student's T-test); CXCL2, significant change in cytokine expression in BALF supernatant [1, 5]: + (+ = Significant change in cytokine quantification, p < 0.05 by Student's T-test); CXCL10, significant change in cytokine expression in BALF supernatant [1, 5]: + (+ = Significant change in cytokine quantification, p < 0.05 by Student's T-test); G-CSF, significant change in cytokine expression in BALF supernatant [1, 5]: + (+ = Significant change in cytokine quantification, p < 0.05 by Student's T-test); Significant reduction in αSMA via HTRF compared to TGFβ alone (MRC-5 cells; test compound 1 nM): NS; Significant reduction in αSMA via HTRF compared to TGFβ alone (MRC-5 cells; test compound 1 μM): ++++ (++++ = p < 0.001)
2 | CCC(C)CN1CC2N(Cc3ccc(C(F)(F)F)cc3)CCC(=O)N2[C@@H](C)C1=O (some centres unmarked) [Compound 5a] | + (+ = Significant change in cytokine quantification, p < 0.05 by Student's T-test) | + (+ = Significant change in cytokine quantification, p < 0.05 by Student's T-test) | CCL3, CXCL1, IFN-γ, IL-1α, IL-1β, IL-10, IL-12p70, and IL-17A | ++ (++ = >25% reduction in cell count vs disease control) | ++ (++ = >25% reduction in cell count vs disease control) | + (+ = >5% reduction in cell count vs disease control) | + (+ = >5% reduction in cell count vs disease control) | reduced both total leukocyte counts and neutrophil counts | ++ (“++” indicates a p value <0.01 in Tukey post test) | NS | NS | ++ (“++” indicates a p value <0.01 in Tukey post test) | + (“+” indicates a p value <0.05 in Tukey post test) | NS | ++ (“++” indicates a p value <0.01 in Tukey post test) | ++ (“++” indicates a p value <0.01 in Tukey post test) | + (“+” indicates a p value <0.05 in Tukey post test) | significantly reduced | significantly reduced | significantly reduced αSMA | CCL3, significant change in cytokine expression in BALF supernatant [1, 4]: + (+ = Significant change in cytokine quantification, p < 0.05 by Student's T-test); CX3CL1, significant change in cytokine expression in BALF supernatant [1, 4]: + (+ = Significant change in cytokine quantification, p < 0.05 by Student's T-test); EGF, significant change in cytokine expression in BALF supernatant [1, 4]: + (+ = Significant change in cytokine quantification, p < 0.05 by Student's T-test); IL-1α, significant change in cytokine expression in BALF supernatant [1, 4]: + (+ = Significant change in cytokine quantification, p < 0.05 by Student's T-test); IL-1β, significant change in cytokine expression in BALF supernatant [1, 4]: + (+ = Significant change in cytokine quantification, p < 0.05 by Student's T-test); IL-10, significant change in cytokine expression in BALF supernatant [1, 4]: + (+ = Significant change in cytokine quantification, p < 0.05 by Student's T-test); IL-12p70, significant change in cytokine expression in BALF supernatant [1, 4]: + (+ = Significant change in cytokine quantification, p < 0.05 by Student's T-test); IL-17A, significant change in cytokine expression in BALF supernatant [1, 4]: + (+ = Significant change in cytokine quantification, p < 0.05 by Student's T-test); IFN-γ, significant change in cytokine expression in BALF supernatant [1, 5]: + (+ = Significant change in cytokine quantification, p < 0.05 by Student's T-test); IL-1α, significant change in cytokine expression in BALF supernatant [1, 5]: + (+ = Significant change in cytokine quantification, p < 0.05 by Student's T-test); IL-10, significant change in cytokine expression in BALF supernatant [1, 5]: + (+ = Significant change in cytokine quantification, p < 0.05 by Student's T-test); IL-17A, significant change in cytokine expression in BALF supernatant [1, 5]: + (+ = Significant change in cytokine quantification, p < 0.05 by Student's T-test); IL-1α, significant change in cytokine expression in BALF supernatant [1, 6]: + (+ = Significant change in cytokine quantification, p < 0.05 by Student's T-test); IL-10, significant change in cytokine expression in BALF supernatant [1, 6]: + (+ = Significant change in cytokine quantification, p < 0.05 by Student's T-test); Neutrophils in BALF, reduction in cell count vs disease control ([2]; 7.5 mg/kg IV): + (+ = >5% reduction in cell count vs disease control); Total Leukocytes in BALF, reduction in cell count vs disease control ([2]; 7.5 mg/kg IV): + (+ = >5% reduction in cell count vs disease control); αSMA expression (MRC-5 cells; 1 nM): significantly reduced αSMA; Significant reduction in αSMA via HTRF compared to TGFβ alone (MRC-5 cells; test compound 1 nM): + (+ = p < 0.05); Significant reduction in αSMA via HTRF compared to TGFβ alone (MRC-5 cells; test compound 1 μM): ++++ (++++ = p < 0.001)
